In ChEMBL document CHEMBL2401728, “An unexpected Dimroth rearrangement leading to annelated thieno[3,2-d][1,2,3]triazolo[1,5-a]pyrimidines with potent antitumor activity” (Eur J Med Chem, 2013):

Columns and labels:
Format in all cases: functional
HCT-15 [1] = test: Cytotoxicity against human HCT15 cells assessed as cellular growth at 0.01 uM after 48 hrs by SRB assay relative to control
UACC-62 = test: Cytotoxicity against human UACC62 cells assessed as cellular growth at 100 uM after 48 hrs by SRB assay relative to control
MDA-MB-231 = test: Cytotoxicity against human MDA-MB-231 cells after 48 hrs by SRB assay; conditions: MDA-MB-231, 48 h
Malme-3M = test: Cytotoxicity against human MALME-3M cells assessed as cellular growth at 10 uM after 48 hrs by SRB assay relative to control
LOX IMVI [2] = test: Cytotoxicity against human LOXIMVI cells assessed as cellular growth at 10 uM after 48 hrs by SRB assay relative to control
A498 = test: Cytotoxicity against human A498 cells assessed as cellular growth at 100 uM after 48 hrs by SRB assay relative to control
CCRF-CEM = test: Cytotoxicity against human CCRF-CEM cells assessed as cellular growth at 0.01 uM after 48 hrs by SRB assay relative to control
UO-31 [3] = test: Cytotoxicity against human UO31 cells assessed as cellular growth at 100 uM after 48 hrs by SRB assay relative to control
HOP-62 = test: Cytotoxicity against human HOP62 cells assessed as cellular growth at 0.1 uM after 48 hrs by SRB assay relative to control
RXF 393 = test: Cytotoxicity against human RXF393 cells after 48 hrs by SRB assay; conditions: RXF 393, 48 h
NCI-H460 [4] = test: Cytotoxicity against human NCI-H460 cells assessed as cellular growth at 1 uM after 48 hrs by SRB assay relative to control
OVCAR-4 = test: Cytotoxicity against human OVCAR4 cells after 48 hrs by SRB assay; conditions: OVCAR-4, 48 h
M14 = test: Cytotoxicity against human M14 cells assessed as cellular growth at 0.01 uM after 48 hrs by SRB assay relative to control
UO-31 [5] = test: Cytotoxicity against human UO31 cells assessed as cellular growth at 1 uM after 48 hrs by SRB assay relative to control
LOX IMVI [6] = test: Cytotoxicity against human LOXIMVI cells assessed as cellular growth at 1 uM after 48 hrs by SRB assay relative to control
HCT-116 = test: Cytotoxicity against human HCT116 cells assessed as cellular growth at 0.1 uM after 48 hrs by SRB assay relative to control
ACHN [7] = test: Cytotoxicity against human ACHN cells assessed as cellular growth at 0.1 uM after 48 hrs by SRB assay relative to control
A549 [8] = test: Cytotoxicity against human A549 cells assessed as cellular growth at 100 uM after 48 hrs by SRB assay relative to control
SN12C = test: Cytotoxicity against human SN12C cells assessed as cellular growth at 0.1 uM after 48 hrs by SRB assay relative to control
SK-MEL-5 = test: Cytotoxicity against human SK-MEL-5 cells assessed as cellular growth at 0.1 uM after 48 hrs by SRB assay relative to control
MDA-MB-435 = test: Cytotoxicity against human MDA-MB-435 cells assessed as cellular growth at 10 uM after 48 hrs by SRB assay relative to control
ACHN [9] = test: Cytotoxicity against human ACHN cells assessed as cellular growth at 0.01 uM after 48 hrs by SRB assay relative to control
T47D = test: Cytotoxicity against human T47D cells assessed as cellular growth at 100 uM after 48 hrs by SRB assay relative to control
A549 [10] = test: Cytotoxicity against human A549 cells assessed as cellular growth at 1 uM after 48 hrs by SRB assay relative to control
NCI-H460 [11] = test: Cytotoxicity against human NCI-H460 cells assessed as cellular growth at 100 uM after 48 hrs by SRB assay relative to control
NCI-H226 [12] = test: Cytotoxicity against human NCI-H226 cells assessed as cellular growth at 100 uM after 48 hrs by SRB assay relative to control
HL-60(TB) = test: Cytotoxicity against human HL-60(TB) cells assessed as cellular growth at 10 uM after 48 hrs by SRB assay relative to control
NCI-H522 = test: Cytotoxicity against human NCI-H522 cells assessed as cellular growth at 1 uM after 48 hrs by SRB assay relative to control
SNB-75 = test: Cytotoxicity against human SNB75 cells assessed as cellular growth at 10 uM after 48 hrs by SRB assay relative to control
IGROV-1 = test: Cytotoxicity against human IGROV1 cells after 48 hrs by SRB assay; conditions: IGROV-1, 48 h
SR = test: Cytotoxicity against human SR cells assessed as cellular growth at 10 uM after 48 hrs by SRB assay relative to control
[13] = Cytotoxicity against human EKVX cells assessed as cellular growth at 1 uM after 48 hrs by SRB assay relative to control
HCT-15 [14] = test: Cytotoxicity against human HCT15 cells assessed as cellular growth at 0.1 uM after 48 hrs by SRB assay relative to control
NCI-H226 [15] = test: Cytotoxicity against human NCI-H226 cells assessed as cellular growth at 1 uM after 48 hrs by SRB assay relative to control
SNB-19 = test: Cytotoxicity against human SNB19 cells assessed as cellular growth at 0.1 uM after 48 hrs by SRB assay relative to control
A549 [16] = test: Cytotoxicity against human A549 cells assessed as cellular growth at 0.01 uM after 48 hrs by SRB assay relative to control
[17] = Cytotoxicity against human EKVX cells assessed as cellular growth at 0.1 uM after 48 hrs by SRB assay relative to control
HOP-92 = test: Cytotoxicity against human HOP92 cells assessed as cellular growth at 100 uM after 48 hrs by SRB assay relative to control
NCI-H460 [18] = test: Cytotoxicity against human NCI-H460 cells assessed as cellular growth at 0.01 uM after 48 hrs by SRB assay relative to control
[19] = read-out: LC50 (the source's name)
[20] = read-out: pLC50 (the source's name) (converted)

CN1CCN(CCCn2c3c(sc4ncccc43)c(=O)n3nnc(-c4ccccc4)c23)CC1
Activity (HCT-15 [1]): 94% | Activity (UACC-62): -74% | GI50 (MDA-MB-231; read-out: GI50): 1.7 µM | TGI (MDA-MB-231; read-out: TGI): 3.51 µM | GI50 (MDA-MB-231; read-out: pGI50 (converted)): 1.7 µM | TGI (MDA-MB-231; read-out: pTGI (converted)): 3.55 µM | Activity (Malme-3M): -82% | Activity (LOX IMVI [2]): -96.04% | Activity (A498): -92% | Activity (CCRF-CEM): 109% | Activity (UO-31 [3]): -87% | Activity (HOP-62): 84% | GI50 (RXF 393; read-out: GI50): 1.7 µM | CC50 (RXF 393; [19]): 5.86 µM | TGI (RXF 393; read-out: TGI): 3.15 µM | GI50 (RXF 393; read-out: pGI50 (converted)): 1.7 µM | CC50 (RXF 393; [20]): 5.89 µM | TGI (RXF 393; read-out: pTGI (converted)): 3.16 µM | Activity (NCI-H460 [4]): 95% | GI50 (OVCAR-4; read-out: GI50): 1.87 µM | CC50 (OVCAR-4; [19]): 8.04 µM | TGI (OVCAR-4; read-out: TGI): 3.88 µM | GI50 (OVCAR-4; read-out: pGI50 (converted)): 1.86 µM | CC50 (OVCAR-4; [20]): 8.13 µM | TGI (OVCAR-4; read-out: pTGI (converted)): 3.89 µM | Activity (M14): 97% | Activity (UO-31 [5]): 51% | Activity (LOX IMVI [6]): 86% | Activity (HCT-116): 96% | Activity (ACHN [7]): 91% | Activity (A549 [8]): -42% | Activity (SN12C): 88% | Activity (SK-MEL-5): 92% | Activity (MDA-MB-435): -81% | Activity (ACHN [9]): 105% | Activity (T47D): -76% | Activity (A549 [10]): 95% | Activity (NCI-H460 [11]): -72% | Activity (NCI-H226 [12]): -79% | Activity (HL-60(TB)): -56% | Activity (NCI-H522): 99% | Activity (SNB-75): 48% | GI50 (IGROV-1; read-out: GI50): 2 µM | CC50 (IGROV-1; [19]): 9.78 µM | TGI (IGROV-1; read-out: TGI): 4.42 µM | GI50 (IGROV-1; read-out: pGI50 (converted)): 2 µM | CC50 (IGROV-1; [20]): 9.77 µM | TGI (IGROV-1; read-out: pTGI (converted)): 4.47 µM | Activity (SR): -50% | Activity [13]: 95% | Activity (HCT-15 [14]): 91% | Activity (NCI-H226 [15]): 85% | Activity (SNB-19): 96% | Activity (A549 [16]): 97% | Activity [17]: 92% | Activity (HOP-92): -67% | Activity (NCI-H460 [18]): 102%

O=C(CCCn1c2c(sc3ccccc32)c(=O)n2nnc(-c3ccccc3)c12)NCCc1c[nH]cn1
Activity (HCT-15 [1]): 96% | Activity (UACC-62): -100% | GI50 (MDA-MB-231; read-out: GI50): 1.88 µM | LC50 (MDA-MB-231; read-out: LC50): 6.54 µM | TGI (MDA-MB-231; read-out: TGI): 3.51 µM | GI50 (MDA-MB-231; read-out: pGI50 (converted)): 1.86 µM | LC50 (MDA-MB-231; read-out: pLC50 (converted)): 6.61 µM | TGI (MDA-MB-231; read-out: pTGI (converted)): 3.47 µM | Activity (Malme-3M): -76.11% | Activity (LOX IMVI [2]): -96% | Activity (A498): -97% | Activity (CCRF-CEM): 56% | Activity (UO-31 [3]): -61% | Activity (HOP-62): 80% | GI50 (RXF 393; read-out: GI50): 2.2 µM | CC50 (RXF 393; [19]): 7.77 µM | TGI (RXF 393; read-out: TGI): 4.14 µM | GI50 (RXF 393; read-out: pGI50 (converted)): 2.19 µM | CC50 (RXF 393; [20]): 7.76 µM | TGI (RXF 393; read-out: pTGI (converted)): 4.17 µM | Activity (NCI-H460 [4]): 75% | GI50 (OVCAR-4; read-out: GI50): 1.83 µM | CC50 (OVCAR-4; [19]): 8.02 µM | TGI (OVCAR-4; read-out: TGI): 3.83 µM | GI50 (OVCAR-4; read-out: pGI50 (converted)): 1.82 µM | CC50 (OVCAR-4; [20]): 7.94 µM | TGI (OVCAR-4; read-out: pTGI (converted)): 3.8 µM | Activity (M14): 108% | Activity (UO-31 [5]): 69% | Activity (LOX IMVI [6]): 82% | Activity (HCT-116): 4% | Activity (ACHN [7]): 100% | Activity (A549 [8]): -2% | Activity (SN12C): 40% | Activity (SK-MEL-5): 90% | Activity (MDA-MB-435): -95.09% | Activity (ACHN [9]): 104% | Activity (T47D): -88% | Activity (A549 [10]): 64% | Activity (NCI-H460 [11]): -15% | Activity (NCI-H226 [12]): -72% | Activity (HL-60(TB)): -29% | Activity (NCI-H522): 42% | Activity (SNB-75): -89% | GI50 (IGROV-1; read-out: GI50): 0.0997 µM | CC50 (IGROV-1; [19]): 5.04 µM | TGI (IGROV-1; read-out: TGI): 2.07 µM | GI50 (IGROV-1; read-out: pGI50 (converted)): 0.1 µM | CC50 (IGROV-1; [20]): 5.01 µM | TGI (IGROV-1; read-out: pTGI (converted)): 2.09 µM | Activity (SR): -64% | Activity [13]: 79% | Activity (HCT-15 [14]): 78% | Activity (NCI-H226 [15]): 101% | Activity (SNB-19): 65% | Activity (A549 [16]): 103% | Activity [17]: 83% | Activity (HOP-92): -50% | Activity (NCI-H460 [18]): 111%

O=C(O)CCCn1c2c(sc3ccccc32)c(=O)n2nnc(-c3ccccc3)c12
Activity (Malme-3M): 106.11% | Activity (LOX IMVI [2]): 94.14% | Activity (MDA-MB-435): 89.16% | Activity (HL-60(TB)): 113.58% | Activity (SNB-75): 83% | Activity (SR): 117.58%
